This is an account of results in the supplement of paper PMC8967900.
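Further: ALL cell lines in 384-well plates, five doses spanning 10,000-fold, each plate scaled between vehicle and 100 µmol/L benzalkonium chloride controls, sDSS an adapted area-under-curve metric.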

The subject of one assay is KARPAS-45. The assay is described as follows: selective drug sensitivity score (sDSS, relative to normal bone marrow) (sDSS (score)); higher = more potent and effective on the cell line relative to normal bone marrow cells. The settings on record: 72 h.
Consider `NC1(c2ccc(-c3nc4ccn5c(=O)[nH]nc5c4cc3-c3ccccc3)cc2)CCC1` [MK-2206] (top concentration 1000 nM), for which the “selective drug sensitivity score” value turned out to be 2.26.
Still for that read-out and setting: the figure for `O=C(Nc1cccc(NC(=O)c2cccc(O)c2O)c1)c1cccc(O)c1O` [MST-312] (top concentration 10000 nM) is 8.1.
The same measure, in the same setting: as for `CC(=O)O[C@]1(C(C)=O)CC[C@H]2[C@@H]3C=C(C)C4=CC(=O)CC[C@]4(C)[C@H]3CC[C@@]21C` [Megestrol_acetate] (top concentration 10000 nM), the figure is 2.72; as for `CO[C@@H]1[C@H](N(C)C(=O)c2ccccc2)C[C@H]2O[C@]1(C)n1c3ccccc3c3c4c(c5c6ccccc6n2c5c31)C(=O)NC4` [Midostaurin] (top concentration 10000 nM), 4.06; as for `CCCCCCCCCCCCCCCCOP(=O)([O-])OCC[N+](C)(C)C` [Miltefosine] (top concentration 100000 nM), 2.26.
With `Nc1ccccc1NC(=O)c1ccc(CNc2nccc(-c3cccnc3)n2)cc1` [Mocetinostat] (top concentration 10000 nM), the “selective drug sensitivity score” value was 8.84.
In the case of `CCNC(=O)C[C@@H]1N=C(c2ccc(Cl)cc2)c2cc(OC)ccc2-n2c(C)nnc21` [Molibresib] (top concentration 10000 nM), the “selective drug sensitivity score” value was found to be 5.3.
On the same count and under the same terms, the figure for `Nc1ncnc2c1c(-c1cccc(OCc3ccccc3)c1)cn2[C@H]1C[C@@H](CN2CCC2)C1` [NVP-AEW541] (top concentration 10000 nM) is -0.92; for `CN[C@@H](C)C(=O)N[C@H](C(=O)N1CCC[C@H]1c1nc(C(=O)c2ccc(F)cc2)cs1)C1CCCCC1` [NVP-LCL161] (top concentration 25000 nM) it is -1.82.

The subject of the next assay is MOLT-16. The description is as above. The note with it: 72 h.
For `Nc1ccccc1NC(=O)c1ccc(CNC(=O)OCc2cccnc2)cc1` [Entinostat] (top concentration 10000 nM), the “selective drug sensitivity score” value stood at 6.58.
As to `C#Cc1cccc(Nc2ncnc3cc(OCCOC)c(OCCOC)cc23)c1` [Erlotinib] (top concentration 10000 nM), the “selective drug sensitivity score” value stood at 4.36.
On the same count and under the same terms, as for `O=C(Nc1nc2cccc(-c3ccc(CN4CCS(=O)(=O)CC4)cc3)n2n1)C1CC1` [Filgotinib] (top concentration 10000 nM), the figure is 4.86.
Same read-out and setting: as for `C[C@H]1C=C2C(=O)O[C@H]3CC[C@@H](C1)[C@@]23O` [Galiellalactone] (top concentration 25000 nM), the figure is 3.36.
For `CN(C)C1CCN(C(=O)c2ccc(NC(=O)Nc3ccc(-c4nc(N5CCOCC5)nc(N5CCOCC5)n4)cc3)cc2)CC1` [Gedatolisib] (top concentration 1000 nM), the “selective drug sensitivity score” value is 15.9.
On the same count and under the same terms, as for `Nc1ccn([C@@H]2O[C@H](CO)[C@@H](O)C2(F)F)c(=O)n1` [Gemcitabine] (top concentration 1000 nM), the figure is 21.5; as for `COc1cc2c(cc1-c1c(C)noc1C)ncc1[nH]c(=O)n([C@H](C)c3ccccn3)c12` [I-BET151] (top concentration 10000 nM), 5.96.
Same read-out and setting: as for `O=C1CCc2c(Oc3ccc4c(c3)[C@@H]3[C@H](O4)[C@H]3c3nc4cc(C(F)(F)F)ccc4[nH]3)ccnc2N1` [Lifirafenib (BGB-283)] (top concentration 10000 nM), the figure is 3.98.
For the compound `NC(=O)N1CCC(CC(=O)N2CCC([C@H]3c4ncc(Br)cc4CCc4cc(Cl)cc(Br)c43)CC2)CC1` [Lonafarnib] (top concentration 100000 nM), the “selective drug sensitivity score” value amounted to 11.2.
Consider `NC1(c2ccc(-c3nc4ccn5c(=O)[nH]nc5c4cc3-c3ccccc3)cc2)CCC1` [MK-2206] (top concentration 1000 nM), for which the “selective drug sensitivity score” value stood at 6.16.
For the compound `O=C(Nc1cccc(NC(=O)c2cccc(O)c2O)c1)c1cccc(O)c1O` [MST-312] (top concentration 10000 nM), the “selective drug sensitivity score” value was 17.3.
Still for that read-out and setting: as for `CC(=O)O[C@]1(C(C)=O)CC[C@H]2[C@@H]3C=C(C)C4=CC(=O)CC[C@]4(C)[C@H]3CC[C@@]21C` [Megestrol_acetate] (top concentration 10000 nM), the figure is 0.32; as for `CO[C@@H]1[C@H](N(C)C(=O)c2ccccc2)C[C@H]2O[C@]1(C)n1c3ccccc3c3c4c(c5c6ccccc6n2c5c31)C(=O)NC4` [Midostaurin] (top concentration 10000 nM), 12.5; as for `CCCCCCCCCCCCCCCCOP(=O)([O-])OCC[N+](C)(C)C` [Miltefosine] (top concentration 100000 nM), -1.34.
Same read-out and setting: the figure for `Nc1ccccc1NC(=O)c1ccc(CNc2nccc(-c3cccnc3)n2)cc1` [Mocetinostat] (top concentration 10000 nM) is 9.04.
Same read-out and setting: the figure for `CCNC(=O)C[C@@H]1N=C(c2ccc(Cl)cc2)c2cc(OC)ccc2-n2c(C)nnc21` [Molibresib] (top concentration 10000 nM) is 4.9; for `Nc1ncnc2c1c(-c1cccc(OCc3ccccc3)c1)cn2[C@H]1C[C@@H](CN2CCC2)C1` [NVP-AEW541] (top concentration 10000 nM) it is -2.92; for `CN[C@@H](C)C(=O)N[C@H](C(=O)N1CCC[C@H]1c1nc(C(=O)c2ccc(F)cc2)cs1)C1CCCCC1` [NVP-LCL161] (top concentration 25000 nM) it is -1.62.

The next assay relates to MOLT-14. The assay is described as above. The note with it: 72 h.
As to `Nc1ccccc1NC(=O)c1ccc(CNC(=O)OCc2cccnc2)cc1` [Entinostat] (top concentration 10000 nM), the “selective drug sensitivity score” value came to 7.98.
Same read-out and setting: as for `C#Cc1cccc(Nc2ncnc3cc(OCCOC)c(OCCOC)cc23)c1` [Erlotinib] (top concentration 10000 nM), the figure is 4.06; as for `O=C(Nc1nc2cccc(-c3ccc(CN4CCS(=O)(=O)CC4)cc3)n2n1)C1CC1` [Filgotinib] (top concentration 10000 nM), -0.44.
Consider `C[C@H]1C=C2C(=O)O[C@H]3CC[C@@H](C1)[C@@]23O` [Galiellalactone] (top concentration 25000 nM), for which the “selective drug sensitivity score” value came out at 5.26.
Consider `CN(C)C1CCN(C(=O)c2ccc(NC(=O)Nc3ccc(-c4nc(N5CCOCC5)nc(N5CCOCC5)n4)cc3)cc2)CC1` [Gedatolisib] (top concentration 1000 nM), for which the “selective drug sensitivity score” value was -3.24.
On the same count and under the same terms, the figure for `Nc1ccn([C@@H]2O[C@H](CO)[C@@H](O)C2(F)F)c(=O)n1` [Gemcitabine] (top concentration 1000 nM) is 14.3; for `COc1cc2c(cc1-c1c(C)noc1C)ncc1[nH]c(=O)n([C@H](C)c3ccccn3)c12` [I-BET151] (top concentration 10000 nM) it is 0.46; for `O=C1CCc2c(Oc3ccc4c(c3)[C@@H]3[C@H](O4)[C@H]3c3nc4cc(C(F)(F)F)ccc4[nH]3)ccnc2N1` [Lifirafenib (BGB-283)] (top concentration 10000 nM) it is 4.58.
`NC(=O)N1CCC(CC(=O)N2CCC([C@H]3c4ncc(Br)cc4CCc4cc(Cl)cc(Br)c43)CC2)CC1` [Lonafarnib] (top concentration 100000 nM): the “selective drug sensitivity score” value is 14.1.
The same measure, in the same setting: as for `NC1(c2ccc(-c3nc4ccn5c(=O)[nH]nc5c4cc3-c3ccccc3)cc2)CCC1` [MK-2206] (top concentration 1000 nM), the figure is -1.64.
On the same count and under the same terms, as for `O=C(Nc1cccc(NC(=O)c2cccc(O)c2O)c1)c1cccc(O)c1O` [MST-312] (top concentration 10000 nM), the figure is 5.8; as for `CC(=O)O[C@]1(C(C)=O)CC[C@H]2[C@@H]3C=C(C)C4=CC(=O)CC[C@]4(C)[C@H]3CC[C@@]21C` [Megestrol_acetate] (top concentration 10000 nM), 0.22; as for `CO[C@@H]1[C@H](N(C)C(=O)c2ccccc2)C[C@H]2O[C@]1(C)n1c3ccccc3c3c4c(c5c6ccccc6n2c5c31)C(=O)NC4` [Midostaurin] (top concentration 10000 nM), 11.6.
The same measure, in the same setting: the figure for `CCCCCCCCCCCCCCCCOP(=O)([O-])OCC[N+](C)(C)C` [Miltefosine] (top concentration 100000 nM) is 0.76.
Take `Nc1ccccc1NC(=O)c1ccc(CNc2nccc(-c3cccnc3)n2)cc1` [Mocetinostat] (top concentration 10000 nM): the “selective drug sensitivity score” value was determined as 9.14.
As to `CCNC(=O)C[C@@H]1N=C(c2ccc(Cl)cc2)c2cc(OC)ccc2-n2c(C)nnc21` [Molibresib] (top concentration 10000 nM), the “selective drug sensitivity score” value is -2.1.
On the same count and under the same terms, the figure for `Nc1ncnc2c1c(-c1cccc(OCc3ccccc3)c1)cn2[C@H]1C[C@@H](CN2CCC2)C1` [NVP-AEW541] (top concentration 10000 nM) is -1.62; for `CN[C@@H](C)C(=O)N[C@H](C(=O)N1CCC[C@H]1c1nc(C(=O)c2ccc(F)cc2)cs1)C1CCCCC1` [NVP-LCL161] (top concentration 25000 nM) it is -3.52.
